The text below walks through data of patent publication US20260285855A1, “HETEROARYL DERIVATIVES AS DDRS INHIBITORS” (CHIESI FARMACEUTICI S.P.A., priority 2023, published 2026).

Test [1] addresses T1, DDR1 (Homo sapiens, UniProt Q08345).
T1 construct: purchased Carna Biosciences
The experiment in a line: LanthaScreen Europium Kinase Binding assay, DDR1. The conditions noted are these: 5 nM DDR1, 20 nM Kinase Tracer 178, 1 h at rt; Ki from IC50 by Cheng-Prusoff; read-out: Ki DDR1. As to the method: (§1) DDR1 and DDR2 binding assays were performed using Life Technologies LanthaScreen™ Europium Kinase Binding assay. […] IC50 values were determined in GraphPad Prism 7.0 software, using 4 parameter model: log (inhibitor) vs. response. IC50 values were converted in Ki using the Cheng-Prusoff equation (Ki-IC50/(1+ [Tracer]/Kd).
In general terms: In TR-FRET formats the signal depends on donor and acceptor labels being close together.

Test [2] deals with T2, DDR2 (Homo sapiens, UniProt Q16832).
T2 construct: purchased Life Technologies
T2 sequence (Q16832 22-855): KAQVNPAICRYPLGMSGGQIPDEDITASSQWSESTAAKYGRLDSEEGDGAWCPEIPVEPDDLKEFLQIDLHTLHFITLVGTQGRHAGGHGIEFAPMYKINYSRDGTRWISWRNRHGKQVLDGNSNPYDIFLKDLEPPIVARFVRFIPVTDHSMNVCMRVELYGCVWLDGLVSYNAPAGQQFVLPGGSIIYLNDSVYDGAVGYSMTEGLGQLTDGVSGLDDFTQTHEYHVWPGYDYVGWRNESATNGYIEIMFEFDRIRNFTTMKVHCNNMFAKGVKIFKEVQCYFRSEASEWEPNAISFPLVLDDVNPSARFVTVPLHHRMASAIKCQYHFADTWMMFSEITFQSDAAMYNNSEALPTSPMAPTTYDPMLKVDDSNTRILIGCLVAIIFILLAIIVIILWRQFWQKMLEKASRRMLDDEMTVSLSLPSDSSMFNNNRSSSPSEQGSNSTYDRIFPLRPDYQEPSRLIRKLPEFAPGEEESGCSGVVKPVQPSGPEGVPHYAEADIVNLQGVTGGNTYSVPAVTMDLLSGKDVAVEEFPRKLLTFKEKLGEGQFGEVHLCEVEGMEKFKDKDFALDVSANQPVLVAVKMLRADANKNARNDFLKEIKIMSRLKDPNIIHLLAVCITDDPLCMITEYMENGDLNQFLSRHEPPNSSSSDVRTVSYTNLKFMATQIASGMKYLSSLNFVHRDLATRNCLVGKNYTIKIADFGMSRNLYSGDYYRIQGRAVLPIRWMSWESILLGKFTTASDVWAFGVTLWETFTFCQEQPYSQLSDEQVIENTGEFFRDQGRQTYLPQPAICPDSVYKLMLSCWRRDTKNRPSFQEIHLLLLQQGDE
Nature of the test: LanthaScreen Europium Kinase Binding assay, DDR2. As to conditions: 5 nM DDR2, 10 nM Kinase Tracer 178, 1 h at rt; Ki from IC50 by Cheng-Prusoff; read-out: Ki DDR2. On the procedure: as §1

T1 sequence (Q08345 19-913): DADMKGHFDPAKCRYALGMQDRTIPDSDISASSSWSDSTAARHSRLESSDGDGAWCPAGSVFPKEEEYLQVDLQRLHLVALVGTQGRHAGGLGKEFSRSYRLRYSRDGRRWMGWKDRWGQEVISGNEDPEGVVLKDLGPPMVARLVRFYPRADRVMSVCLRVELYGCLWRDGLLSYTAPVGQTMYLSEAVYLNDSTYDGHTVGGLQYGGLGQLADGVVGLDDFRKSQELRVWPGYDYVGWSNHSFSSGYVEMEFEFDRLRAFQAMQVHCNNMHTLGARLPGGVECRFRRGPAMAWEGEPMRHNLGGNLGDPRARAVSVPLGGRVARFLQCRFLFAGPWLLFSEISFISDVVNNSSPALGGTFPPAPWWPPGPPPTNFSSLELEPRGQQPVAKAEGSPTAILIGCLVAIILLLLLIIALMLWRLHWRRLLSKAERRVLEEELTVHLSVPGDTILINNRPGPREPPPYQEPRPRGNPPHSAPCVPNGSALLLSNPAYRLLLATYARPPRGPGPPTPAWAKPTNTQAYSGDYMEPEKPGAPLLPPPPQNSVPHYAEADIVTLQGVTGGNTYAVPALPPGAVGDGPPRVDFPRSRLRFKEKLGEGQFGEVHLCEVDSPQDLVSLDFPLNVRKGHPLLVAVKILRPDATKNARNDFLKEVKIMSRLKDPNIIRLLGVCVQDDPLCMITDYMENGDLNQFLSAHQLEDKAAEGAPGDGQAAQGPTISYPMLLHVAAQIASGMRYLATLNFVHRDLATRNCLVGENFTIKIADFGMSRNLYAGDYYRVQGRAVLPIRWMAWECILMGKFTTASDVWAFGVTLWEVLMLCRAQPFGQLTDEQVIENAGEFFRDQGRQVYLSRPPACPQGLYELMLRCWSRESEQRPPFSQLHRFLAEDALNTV

In the case of `Cc1ncc(NC(=O)NC2CC3(C2)CN(C(=O)c2cnn4ccn(C)c24)C3)cc1C(F)(F)F` [Example 181, 1-(2-(1-methyl-1H-imidazo[1,2-b]pyrazole-7-carbonyl)-2-azaspiro[3.3]heptan-6-yl)-3-(6-methyl-5-(trifluoromethyl)pyridin-3-yl)urea], the results for the Ki in test [1] and in test [2] were under 5 nM and 5 to 25 nM, respectively.

As for `O=C(Nc1cncc(C(F)(F)F)c1)NC1CC2(C1)CN(C(=O)c1cnn3ccsc13)C2` [Example 22, 1-(2-(pyrazolo[5,1-b]thiazole-7-carbonyl)-2-azaspiro[3.3]heptan-6-yl)-3-(5-(trifluoromethyl)pyridin-3-yl)urea], the figures for the Ki in test [1] and in test [2] were under 5 nM and 5 to 25 nM, respectively.

Regarding `COc1cc(NC(=O)N(C)C2CC3(C2)CN(C(=O)c2cnn4ccn(C)c24)C3)cc(C(F)(F)F)c1` [Example 287, 3-(3-methoxy-5-(trifluoromethyl)phenyl)-1-methyl-1-(2-(1-methyl-1H-imidazo[1,2-b]pyrazole-7-carbonyl)-2-azaspiro[3.3]heptan-6-yl)urea], the Ki in test [1] was under 5 nM; in test [2] it was 5 to 25 nM.

Turning to `CN(C(=O)Nc1cc(C(F)(F)F)cs1)C1CC2(C1)CN(C(=O)c1cnn3ccn(C)c13)C2` [Example 291, 1-methyl-1-(2-(1-methyl-1H-imidazo[1,2-b]pyrazole-7-carbonyl)-2-azaspiro[3.3]heptan-6-yl)-3-(4-(trifluoromethyl)thiophen-2-yl)urea], the Ki is under 5 nM in test [1] and 5 to 25 nM in test [2].

For `O=C(Nc1cccc(C(F)(F)F)c1)NC1CC2(C1)CN(C(=O)c1ccnc3[nH]ncc13)C2` [Example 93, 1-(2-(1H-pyrazolo[3,4-b]pyridine-4-carbonyl)-2-azaspiro[3.3]heptan-6-yl)-3-(3-(trifluoromethyl)phenyl)urea], the Ki in test [1] and in test [2] was under 5 nM in each case.

Take `COc1ccc2c(C(=O)N3CC4(CC(N(C)C(=O)Nc5cncc(C(F)(F)F)c5)C4)C3)cnn2c1` [Example 250, 1-(2-(6-methoxypyrazolo[1,5-a]pyridine-3-carbonyl)-2-azaspiro[3.3]heptan-6-yl)-1-methyl-3-(5-(trifluoromethyl)pyridin-3-yl)urea]: the Ki in test [1] is under 5 nM; in test [2] it was 25 to 100 nM.

For the compound `CN(C(=O)Nc1cc(OC(F)(F)F)ccn1)C1CC2(C1)CN(C(=O)c1ccnc3[nH]ncc13)C2` [Example 189, 1-(2-(1H-pyrazolo[3,4-b]pyridine-4-carbonyl)-2-azaspiro[3.3]heptan-6-yl)-1-methyl-3-(4-(trifluoromethoxy)pyridin-2-yl)urea], the Ki in test [1] and in test [2] was 5 to 25 nM each time.

Consider `CN(C(=O)Nc1cncc(C(F)(F)F)c1)C1CC2(C1)CN(C(=O)c1cnn3ccc(N4CCC(F)(F)C4)cc13)C2` [Example 252, 1-(2-(5-(3,3-difluoropyrrolidin-1-yl)pyrazolo[1,5-a]pyridine-3-carbonyl)-2-azaspiro[3.3]heptan-6-yl)-1-methyl-3-(5-(trifluoromethyl)pyridin-3-yl)urea], for which the Ki in test [1] was under 5 nM; in test [2], 5 to 25 nM.

With `O=C(Nc1cccc(C(F)(F)F)c1)NC1CC2(C1)CN(C(=O)c1ccncc1)C2` [Example 44, 1-(2-isonicotinoyl-2-azaspiro[3.3]heptan-6-yl)-3-(3-(trifluoromethyl)phenyl)urea], the Ki in test [1] and in test [2] was 25 to 100 nM throughout.

Consider `COc1ccn2ncc(C(=O)N3CC4(CC(N(C)C(=O)Nc5cncc(C(F)(F)F)c5)C4)C3)c2c1` [Example 251, 1-(2-(5-methoxypyrazolo[1,5-a]pyridine-3-carbonyl)-2-azaspiro[3.3]heptan-6-yl)-1-methyl-3-(5-(trifluoromethyl)pyridin-3-yl)urea], for which the Ki is under 5 nM in test [1] and 5 to 25 nM in test [2].

`CN(C(=O)Nc1cc(Cl)cc(C(F)(F)F)c1)C1CC2(C1)CN(C(=O)c1ncnc3[nH]ccc13)C2` [Example 286, 1-(2-(7H-pyrrolo[2,3-d]pyrimidine-4-carbonyl)-2-azaspiro[3.3]heptan-6-yl)-3-(3-chloro-5-(trifluoromethyl)phenyl)-1-methylurea]: the Ki is under 5 nM in test [1] and 5 to 25 nM in test [2].

On to `CN(C(=O)Nc1cc(Br)ccn1)C1CC2(C1)CN(C(=O)c1cnn3ccn(C)c13)C2` [Example 200, 3-(4-bromopyridin-2-yl)-1-methyl-1-(2-(1-methyl-1H-imidazo[1,2-b]pyrazole-7-carbonyl)-2-azaspiro[3.3]heptan-6-yl)urea], for which the Ki in test [1] is under 5 nM; in test [2], 5 to 25 nM.

For the compound `CN(C(=O)Nc1cncc(C(F)(F)F)c1)C1CC2(C1)CN(C(=O)c1ncnc3ccsc13)C2` [Example 130, 1-methyl-1-(2-(thieno[3,2-d]pyrimidine-4-carbonyl)-2-azaspiro[3.3]heptan-6-yl)-3-(5-(trifluoromethyl)pyridin-3-yl)urea], the Ki in test [1] is under 5 nM; in test [2] it was 5 to 25 nM.

Regarding `CN(C(=O)Nc1cc(C(F)(F)F)cnn1)C1CC2(C1)CN(C(=O)c1cnn3ccsc13)C2` [Example 228, 1-methyl-1-(2-(pyrazolo[5,1-b]thiazole-7-carbonyl)-2-azaspiro[3.3]heptan-6-yl)-3-(5-(trifluoromethyl)pyridazin-3-yl)urea], the values for the Ki in test [1] and in test [2] were under 5 nM and 25 to 100 nM, respectively.

Regarding `Cn1ccn2ncc(C(=O)N3CC4(CC(NC(=O)Nc5cc(OC(F)(F)F)ccc5Cl)C4)C3)c12` [Example 92, 1-(2-chloro-5-(trifluoromethoxy)phenyl)-3-(2-(1-methyl-1H-imidazo[1,2-b]pyrazole-7-carbonyl)-2-azaspiro[3.3]heptan-6-yl)urea], the Ki in test [1] and in test [2] was under 5 nM each time.

Turning to `COc1ccc(OC(F)(F)F)cc1NC(=O)CC1CC2(C1)CN(C(=O)c1ccnc3ccsc13)C2` [Example 139, N-(2-methoxy-5-(trifluoromethoxy)phenyl)-2-(2-(thieno[3,2-b]pyridine-7-carbonyl)-2-azaspiro[3.3]heptan-6-yl)acetamide], the Ki in test [1] and in test [2] was under 5 nM each time.

For the compound `COc1ccc(S(F)(F)(F)(F)F)cc1NC(=O)NC1CC2(C1)CN(C(=O)c1cnn3ccn(C)c13)C2` [Example 109, 1-(2-methoxy-5-(pentafluoro-16-sulfaneyl)phenyl)-3-(2-(1-methyl-1H-imidazo[1,2-b]pyrazole-7-carbonyl)-2-azaspiro[3.3]heptan-6-yl)urea], the Ki in test [1] and in test [2] was under 5 nM in each case.

For the compound `Cn1ccn2ncc(C(=O)N3CC4(CC(NC(=O)Nc5ccc(F)c(OC(F)(F)F)c5)C4)C3)c12` [Example 118, 1-(4-fluoro-3-(trifluoromethoxy)phenyl)-3-(2-(1-methyl-1H-imidazo[1,2-b]pyrazole-7-carbonyl)-2-azaspiro[3.3]heptan-6-yl)urea], the Ki in test [1] and in test [2] was under 5 nM each time.

Turning to `CN(C(=O)Nc1cc(C#N)cc(OC(F)(F)F)c1)C1CC2(C1)CN(C(=O)c1cnn3ccn(C)c13)C2` [Example 111, 3-(3-cyano-5-(trifluoromethoxy)phenyl)-1-methyl-1-(2-(1-methyl-1H-imidazo[1,2-b]pyrazole-7-carbonyl)-2-azaspiro[3.3]heptan-6-yl)urea], the Ki in test [1] and in test [2] was under 5 nM each time.

`Cn1ccn2ncc(C(=O)N3CC4(CC(NC(=O)Nc5cc(C#N)cc(C(F)(F)F)c5)C4)C3)c12` [Example 39, 1-(3-cyano-5-(trifluoromethyl)phenyl)-3-(2-(1-methyl-1H-imidazo[1,2-b]pyrazole-7-carbonyl)-2-azaspiro[3.3]heptan-6-yl)urea]: the Ki in test [1] and in test [2] was under 5 nM each time.

On to `Cn1ccn2ncc(C(=O)N3CC4(CC(NC(=O)Nc5ccc(F)c(C(F)(F)F)c5)C4)C3)c12` [Example 121, 1-(4-fluoro-3-(trifluoromethyl)phenyl)-3-(2-(1-methyl-1H-imidazo[1,2-b]pyrazole-7-carbonyl)-2-azaspiro[3.3]heptan-6-yl)urea], for which the results for the Ki in test [1] and in test [2] were under 5 nM and 5 to 25 nM, respectively.

Regarding `COc1ccc(Cl)cc1NC(=O)NC1CC2(C1)CN(C(=O)c1cnn3ccn(C)c13)C2` [Example 38, 1-(5-chloro-2-methoxyphenyl)-3-(2-(1-methyl-1H-imidazo[1,2-b]pyrazole-7-carbonyl)-2-azaspiro[3.3]heptan-6-yl)urea], the Ki in test [1] was under 5 nM; in test [2], 5 to 25 nM.

As a reminder, the Ki is the equilibrium dissociation constant of an inhibitor or competing ligand from its target.
